Measurements as given in patent US20090299044A1 (priority 2006, published 2009).
Bridge positions count the residues as written; N and C are the ends. Square brackets hold non-standard residues; d marks the D form. Peptide text beside a SMILES is read from it. 1Nal = N[C@@H](Cc1cccc2ccccc12)C(=O)O

Key:
human Kv1.3 (CHO) = biological target: T1, human Kv1.3 (CHO) (Homo sapiens, UniProt P22001); experiment: cell-based
T1 construct: expressed in transfected cells; host or cells: CHO

human Kv1.1 (HEK293) = biological target: T2, human Kv1.1 (HEK293) (Homo sapiens, UniProt Q09470); experiment: cell-based
T2 construct: expressed in transfected cells; host or cells: HEK293
T2 sequence (Q09470 whole entry): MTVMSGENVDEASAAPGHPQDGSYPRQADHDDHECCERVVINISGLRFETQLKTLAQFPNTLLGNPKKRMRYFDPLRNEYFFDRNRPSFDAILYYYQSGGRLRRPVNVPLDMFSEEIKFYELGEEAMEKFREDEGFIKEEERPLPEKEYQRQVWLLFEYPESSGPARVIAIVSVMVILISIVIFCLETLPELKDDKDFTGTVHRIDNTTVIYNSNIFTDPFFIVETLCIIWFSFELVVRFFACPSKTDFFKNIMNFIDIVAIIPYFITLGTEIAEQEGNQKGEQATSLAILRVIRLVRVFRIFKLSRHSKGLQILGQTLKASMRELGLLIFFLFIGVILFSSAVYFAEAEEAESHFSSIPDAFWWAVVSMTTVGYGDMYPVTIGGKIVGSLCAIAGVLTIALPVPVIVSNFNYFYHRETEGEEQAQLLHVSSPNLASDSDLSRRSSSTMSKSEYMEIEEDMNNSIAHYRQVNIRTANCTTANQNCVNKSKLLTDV

T1 sequence (P22001 whole entry): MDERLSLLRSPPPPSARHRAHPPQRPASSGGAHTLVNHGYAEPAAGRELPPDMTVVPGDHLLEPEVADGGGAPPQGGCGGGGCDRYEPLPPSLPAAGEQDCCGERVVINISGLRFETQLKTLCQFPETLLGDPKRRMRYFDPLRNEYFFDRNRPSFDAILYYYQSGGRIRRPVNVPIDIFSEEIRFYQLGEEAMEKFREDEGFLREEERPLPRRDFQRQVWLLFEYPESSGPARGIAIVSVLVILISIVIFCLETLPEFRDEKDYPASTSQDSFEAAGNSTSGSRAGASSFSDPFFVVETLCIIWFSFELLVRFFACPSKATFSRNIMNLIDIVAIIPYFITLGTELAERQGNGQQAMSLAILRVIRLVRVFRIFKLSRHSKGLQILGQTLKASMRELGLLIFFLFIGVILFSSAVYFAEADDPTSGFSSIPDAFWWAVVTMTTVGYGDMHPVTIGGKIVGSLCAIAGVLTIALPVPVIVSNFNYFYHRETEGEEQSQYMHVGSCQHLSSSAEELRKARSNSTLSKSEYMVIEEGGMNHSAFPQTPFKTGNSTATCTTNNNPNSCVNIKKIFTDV

For `CC[C@H](C)[C@H](NC(=O)[C@H](C)NC(=O)[C@@H](NC(=O)CN)C(C)C)C(=O)N[C@@H](CC(N)=O)C(=O)N[C@H](C(=O)N[C@@H](CCCCN)C(=O)N[C@H]1CSSC[C@@H]2NC(=O)[C@H](CCCCN)NC(=O)CNC(=O)[C@H](Cc3ccccc3)NC(=O)[C@H](CCCNC(=N)N)NC(=O)[C@H](CCSC)NC(=O)CNC(=O)[C@H](C)NC(=O)[C@H](CCCCN)NC(=O)[C@H](CCCCN)NC(=O)[C@@H]3CSSC[C@@H](C(=O)N[C@H](C(=O)N4CCC[C@H]4C(=O)N[C@@H](CCCCN)C(=O)O)[C@@H](C)O)NC(=O)[C@H](Cc4c[nH]cn4)NC(=O)[C@H](CSSC[C@H](NC(=O)[C@H](CCC(N)=O)NC(=O)[C@H](CCCNC(=N)N)NC(=O)[C@H](CO)NC(=O)[C@H]([C@@H](C)CC)NC(=O)[C@H](CCCCN)NC1=O)C(=O)N[C@@H](CC(C)C)C(=O)N[C@@H](CCC(=O)O)C(=O)N1CCC[C@H]1C(=O)N3)NC(=O)[C@H](CCCCN)NC(=O)CNC(=O)[C@H](CC(N)=O)NC(=O)[C@H](CCSC)NC2=O)C(C)C` [I3A] (H-GVAINVKCKISRQCLEPCKKAGMRFGKCMNGKCHCTPK-OH; disulfide 8-28, 14-33, 18-35), the IC50 (human Kv1.3 (CHO)) was 0.0966 nM and the IC50 (human Kv1.1 (HEK293)) was 0.0106 nM.
`CC[C@H](C)[C@@H]1NC(=O)[C@H](Cc2cccc3ccccc23)NC(=O)[C@@H](NC(=O)[C@H](CCCCN)NC(=O)[C@@H](NC(=O)[C@H](CC(N)=O)NC(=O)[C@@H](NC(=O)[C@@H](NC(=O)[C@@H](NC(=O)CN)C(C)C)[C@@H](C)CC)[C@@H](C)CC)C(C)C)CSSC[C@@H]2NC(=O)[C@H](CCCCN)NC(=O)CNC(=O)[C@H](Cc3ccccc3)NC(=O)[C@H](CCCNC(=N)N)NC(=O)[C@H](CCSC)NC(=O)CNC(=O)[C@H](C)NC(=O)[C@H](CCCCN)NC(=O)[C@H](CCCCN)NC(=O)[C@@H]3CSSC[C@@H](C(=O)N[C@H](C(=O)N4CCC[C@H]4C(=O)N[C@@H](CCCCN)C(=O)O)[C@@H](C)O)NC(=O)[C@H](Cc4c[nH]cn4)NC(=O)[C@H](CSSC[C@H](NC(=O)[C@H](CCC(N)=O)NC(=O)[C@H](CCCNC(=N)N)NC(=O)[C@H](CO)NC1=O)C(=O)N[C@@H](CC(C)C)C(=O)N[C@@H](CCC(=O)O)C(=O)N1CCC[C@H]1C(=O)N3)NC(=O)[C@H](CCCCN)NC(=O)CNC(=O)[C@H](CC(N)=O)NC(=O)[C@H](CCSC)NC2=O` [K9Nal] (H-GVIINVKC[1Nal]ISRQCLEPCKKAGMRFGKCMNGKCHCTPK-OH; disulfide 8-28, 14-33, 18-35) gave an IC50 (human Kv1.3 (CHO)) of 0.0658 nM and an IC50 (human Kv1.1 (HEK293)) of 0.00292 nM.
`CC[C@H](C)[C@@H]1NC(=O)[C@H](CCCCN)NC(=O)[C@@H](NC(=O)[C@H](C)NC(=O)[C@@H](NC(=O)[C@H](CC(N)=O)NC(=O)[C@@H](NC(=O)[C@@H](NC(=O)[C@@H](NC(=O)CN)C(C)C)[C@@H](C)CC)[C@@H](C)CC)C(C)C)CSSC[C@@H]2NC(=O)[C@H](CCCCN)NC(=O)CNC(=O)[C@H](Cc3ccccc3)NC(=O)[C@H](CCCNC(=N)N)NC(=O)[C@H](CCSC)NC(=O)CNC(=O)[C@H](C)NC(=O)[C@H](CCCCN)NC(=O)[C@H](CCCCN)NC(=O)[C@@H]3CSSC[C@@H](C(=O)N[C@H](C(=O)N4CCC[C@H]4C(=O)N[C@@H](CCCCN)C(=O)O)[C@@H](C)O)NC(=O)[C@H](Cc4c[nH]cn4)NC(=O)[C@H](CSSC[C@H](NC(=O)[C@H](CCC(N)=O)NC(=O)[C@H](CCCNC(=N)N)NC(=O)[C@H](CO)NC1=O)C(=O)N[C@@H](CC(C)C)C(=O)N[C@@H](CCC(=O)O)C(=O)N1CCC[C@H]1C(=O)N3)NC(=O)[C@H](CCCCN)NC(=O)CNC(=O)[C@H](CC(N)=O)NC(=O)[C@H](CCSC)NC2=O` [K7A] (H-GVIINVACKISRQCLEPCKKAGMRFGKCMNGKCHCTPK-OH; disulfide 8-28, 14-33, 18-35) was tested, and the IC50 (human Kv1.3 (CHO)) was 0.181 nM and the IC50 (human Kv1.1 (HEK293)) was 0.0219 nM.
`CC[C@H](C)[C@@H]1NC(=O)[C@H](CCCCN)NC(=O)[C@@H](NC(=O)[C@H](CCCCN)NC(=O)[C@@H](NC(=O)[C@H](CC(N)=O)NC(=O)[C@@H](NC(=O)[C@@H](NC(=O)[C@@H](NC(=O)CN)C(C)C)[C@@H](C)CC)[C@@H](C)CC)C(C)C)CSSC[C@@H]2NC(=O)[C@H](Cc3cccc4ccccc34)NC(=O)CNC(=O)[C@H](Cc3ccccc3)NC(=O)[C@H](CCCNC(=N)N)NC(=O)[C@H](CCSC)NC(=O)CNC(=O)[C@H](C)NC(=O)[C@H](CCCCN)NC(=O)[C@H](CCCCN)NC(=O)[C@@H]3CSSC[C@@H](C(=O)N[C@H](C(=O)N4CCC[C@H]4C(=O)N[C@@H](CCCCN)C(=O)O)[C@@H](C)O)NC(=O)[C@H](Cc4c[nH]cn4)NC(=O)[C@H](CSSC[C@H](NC(=O)[C@H](CCC(N)=O)NC(=O)[C@H](CCCNC(=N)N)NC(=O)[C@H](CO)NC1=O)C(=O)N[C@@H](CC(C)C)C(=O)N[C@@H](CCC(=O)O)C(=O)N1CCC[C@H]1C(=O)N3)NC(=O)[C@H](CCCCN)NC(=O)CNC(=O)[C@H](CC(N)=O)NC(=O)[C@H](CCSC)NC2=O` [K27Nal] (H-GVIINVKCKISRQCLEPCKKAGMRFG[1Nal]CMNGKCHCTPK-OH; disulfide 8-28, 14-33, 18-35) was tested, and the IC50 (human Kv1.3 (CHO)) was greater than 3.33 nM and the IC50 (human Kv1.1 (HEK293)) was 1.04 nM.
`CC[C@H](C)[C@@H]1NC(=O)[C@H](CCCCN)NC(=O)[C@@H](NC(=O)[C@H](CCCCN)NC(=O)[C@@H](NC(=O)[C@H](CC(N)=O)NC(=O)[C@@H](NC(=O)[C@@H](NC(=O)[C@@H](NC(=O)CN)C(C)C)[C@@H](C)CC)[C@@H](C)CC)C(C)C)CSSC[C@@H]2NC(=O)[C@H](CCCCN)NC(=O)CNC(=O)[C@H](Cc3ccccc3)NC(=O)[C@H](CCCNC(=N)N)NC(=O)[C@H](CCSC)NC(=O)CNC(=O)[C@H](C)NC(=O)[C@H](CCCCN)NC(=O)[C@H](CCCCN)NC(=O)[C@@H]3CSSC[C@@H](C(=O)N[C@H](C(=O)N4CCC[C@H]4C(=O)N[C@@H](CCCCN)C(=O)O)[C@@H](C)O)NC(=O)[C@H](Cc4c[nH]cn4)NC(=O)[C@H](CSSC[C@H](NC(=O)[C@H](CCC(=O)O)NC(=O)[C@H](CCCNC(=N)N)NC(=O)[C@H](CO)NC1=O)C(=O)N[C@@H](CC(C)C)C(=O)N[C@@H](CCC(=O)O)C(=O)N1CCC[C@H]1C(=O)N3)NC(=O)[C@H](CCCCN)NC(=O)CNC(=O)[C@H](CC(N)=O)NC(=O)[C@H](CCSC)NC2=O` [Q13E] (H-GVIINVKCKISRECLEPCKKAGMRFGKCMNGKCHCTPK-OH; disulfide 8-28, 14-33, 18-35) gave an IC50 (human Kv1.3 (CHO)) of 0.0459 nM and an IC50 (human Kv1.1 (HEK293)) of 0.00628 nM.
In the case of `CC[C@H](C)[C@@H]1NC(=O)[C@H](CCCCN)NC(=O)[C@@H](NC(=O)[C@H](CCCCN)NC(=O)[C@@H](NC(=O)[C@H](CC(N)=O)NC(=O)[C@@H](NC(=O)[C@@H](NC(=O)[C@@H](NC(=O)CN)C(C)C)[C@@H](C)CC)[C@@H](C)CC)C(C)C)CSSC[C@@H]2NC(=O)[C@H](CCCCN)NC(=O)CNC(=O)[C@H](Cc3ccccc3)NC(=O)[C@H](CCCNC(=N)N)NC(=O)[C@H](CCSC)NC(=O)CNC(=O)[C@H](C)NC(=O)[C@H](CCCCN)NC(=O)[C@H](CCCCN)NC(=O)[C@@H]3CSSC[C@@H](C(=O)N[C@H](C(=O)N4CCC[C@H]4C(=O)N[C@@H](CCCCN)C(=O)O)[C@@H](C)O)NC(=O)[C@H](Cc4c[nH]cn4)NC(=O)[C@H](CSSC[C@H](NC(=O)[C@H](CCC(N)=O)NC(=O)[C@H](CCCNC(=N)N)NC(=O)[C@H](CO)NC1=O)C(=O)N[C@@H](CCCNC(=N)N)C(=O)N[C@@H](CCC(=O)O)C(=O)N1CCC[C@H]1C(=O)N3)NC(=O)[C@H](CCCCN)NC(=O)CNC(=O)[C@H](CC(N)=O)NC(=O)[C@H](CCSC)NC2=O` [L15R] (H-GVIINVKCKISRQCREPCKKAGMRFGKCMNGKCHCTPK-OH; disulfide 8-28, 14-33, 18-35), the IC50 (human Kv1.3 (CHO)) is reported as 0.0137 nM and the IC50 (human Kv1.1 (HEK293)) is reported as 0.00216 nM.
